Data: patent US4707481A, “Pyridazinones, their preparation and use, and bronchospasmolytic medicaments containing pyridazinones” (BYK Gulden Lomberg Chemische Fabrik GmbH, priority 1983, dated 1987)
Like-named read-outs stand apart in the source and are kept apart here.

Assays:
[1] = system: chain of tracheal rings of guinea pigs; experiment: relaxing action on chain of tracheal rings in vitro (bronchospasmolytic action); design: species or system guinea pig; conditions: for EC50: Cavia porcellus, Column A, negative logarithm of EC50 in mol/l, 50% of maximum relaxation by (-)isoprenaline, read-out: -lg[EC50] trachea (converted); for [EC40 pot.] left atrium / [EC50] trachea: Column C, measure of organ-selective activity; for [EC50] theophylline / [EC50] substance: Column D, trachea
[2] = system: electrically stimulated left atrium of rats; experiment: positive inotropic action on electrically stimulated left atrium in vitro; design: species or system rat; conditions: for [EC40 pot.] theophylline / [EC40 pot.] substance: Column E, left atrium; for EC40: Rattus norvegicus, Column B, negative logarithm of EC40pot in mol/l, 40% increase in contraction force, read-out: -lg[EC40 pot.] left atrium (converted)
[3] = toxicity studies, mouse p.o.; conditions: in vivo, po; for tolerated dose: mouse, 10080 min
Procedure: The toxicity studies are carried out on female NMRI mice (body weight 23-30 g). The animals (5 animals per dose) receive food and water ad libitum. Various doses of the substances are administered once as a suspension in methocel via a gavage. The period of observation lasts 7 days. The tolerated dose (TD), that is to say the highest dose at which as yet none of the animals die, is determined by observation. The average lethal dose (LD50), that is to say the dose at which 50% of the animals die, is determined from the dose/action curve by means of linear regression.

[4] = system: histamine-induced bronchospasm; experiment: inhibition of histamine-induced bronchospasm in anesthetized guinea pigs; assay type: in vivo, guinea pig
Procedure: A method for simultaneously recording pharmacodynamic and toxic effects on internal sensitive receptors, on the respiration and the cardiovascular system of guinea pigs was used [U. Kilian, E. Muller, E. Ch. […] To characterize the bronchospasm induced by histamine (0.09-0.18 μmol /kg i.v.), the maximum flow rate of the respiratory air during inspiration (Vmaxi) and expiration (Vmaxe) and the breath volume (BVi) were measured. A histamine spasm before administration of the substance was compared with several histamine spasms after administration of the substance. The test substances were administered intravenously (i.v.) and/or intrajejunally (i.j.). 5 to 10 animals were used per measurement, and the arithmetic mean was calculated from the results.

[5] = system: guinea pig hearts isolated and perfused by the Langendorff method; experiment: left-ventricular pressure and heart rate in isolated perfused Langendorff hearts; conditions: for Emax: Cavia porcellus
Description: After the animals have been sacrificed by a blow to the neck and exsanguination through the carotid arteries, the thoracic cavity is opened, and the aorta is exposed and looped up with a thread. A cannula, which is attached by tubing to the apparatus from which the nutrient solution slowly drops, is introduced in the direction of the heart and the heart is, quickly after removal from the thorax, connected to the perfusion apparatus. A balloon probe, connected to a Statham pressure sensor, is advanced through a cut through the left atrium into the left ventricle, and is provided with an initial pressure of 40 mm Hg. […] The nutrient solution flowing freely from the coronary sinus into the right atrium is measured with a flow […]) and, together with the change in the left-ventricular pressure and the heart rate determined from this, is recorded on a Watanabe recorder. The substances are administered in a volume of 0.1 ml of nutrient solution, in the dosage indicated in Tab.

[6] = system: acetylcholine-induced bronchospasm; experiment: protective effect against acetylcholine-induced bronchospasm in conscious guinea pigs; assay type: in vivo, guinea pig; conditions: 100 μmol/kg p.o.; for Tripling of the latency period: figure in parentheses
Procedure: The figure in parentheses indicates the number out of 10 animals in which the latency period more than tripled.
The latency period is to be understood to be the time from the start of acetylcholine-atomization until clear signs of asthma appeared.
The time from the start of atomization to the onset of clear respiratory exertion (in certain circumstances, hypoxic convulsion in the lateral position) is measured, and is denoted the latency period.
The test substance is administered orally by gavage (standard dose 100 μmol/kg, volume 1 ml of 4% strength methocel suspension in 0.9% strength sodium chloride solution/kg). […] Prolongation of the latency period to at least twice its length is regarded as a protective effect.

[7] = system: right ventricle of guinea pigs; experiment: heart function dP/dtmax, right ventricle of anesthetized guinea pigs; assay type: in vivo, guinea pig
Procedure: The effect of the substances on the contractility of the heart of guinea pigs is tested on animals (.male., 400 to 1000 g) under urethane anesthesia. The change in pressure in the right ventricle of the heart is measured with a tip catheter introduced through the right jugular vein and the maximum rate of pressure rise (dP/dtmax) is determined from this. The heart rate is derived from the pressure waves. […] The test substances were administered intravenously. 5-7 animals were used for each measurement, and the arithmetic mean was calculated from the results.

For `CCCCOc1ccc(-c2ccc(=O)[nH]n2)cc1OC` [Serial No. 3, 6-(4-n-butoxy-3-methoxyphenyl)-3[2H]pyridazinone], the EC50 [1] was 2.51 µM, the “[EC40 pot.] left atrium / [EC50] trachea” value [1] was 2.6 and the “[EC50] theophylline / [EC50] substance” value [1] was 53.8. For the same compound, the “[EC40 pot.] theophylline / [EC40 pot.] substance” value [2] was 63.2, the EC40 [2] was 6.61 µM and the tolerated dose [3] was > 761.

For `COc1cc(-c2ccc(=O)[nH]n2)ccc1OCCC(C)C` [Serial No. 6, 6-[3-methoxy-4-(3-methylbutoxy)-phenyl]-3[2H]pyridazinone], the EC50 [1] was 0.708 µM, the “[EC40 pot.] left atrium / [EC50] trachea” value [1] was 219 and the “[EC50] theophylline / [EC50] substance” value [1] was 190. For the same compound, the “[EC40 pot.] theophylline / [EC40 pot.] substance” value [2] was 4.6, the EC40 [2] was 91.2 µM and the tolerated dose [3] was > 800.

For `COc1ccc(-c2ccc(=O)[nH]n2)cc1OC(C)C` [Serial No. 11, 6-(4-methoxy-3-isopropoxyphenyl)-3[2H]pyridazinone], the EC50 [1] was 0.0977 µM, the “[EC40 pot.] left atrium / [EC50] trachea” value [1] was 10000 and the “[EC50] theophylline / [EC50] substance” value [1] was 1370. The EC40 [2] was > 1000 µM, the LD50 at 168 h ([3]; Column F, mouse p.o., 7 days observation, read-out: Approximate LD50) was 600 mg/kg and the “inhibition of histamine-induced bronchospasm, TVi” value (from here on “inhibition … TVi”) ([4]; 20 μmol/kg i.v., 2 min) was 117%. The “inhibition of histamine-induced bronchospasm, Vmaxe” value (“inhibition … Vmaxe” for short) ([4]; 20 μmol/kg i.v., 2 min) was 123%, the “inhibition of histamine-induced bronchospasm, Vmaxi” value (shortened to “inhibition … Vmaxi”) ([4]; 20 μmol/kg i.v., 2 min) was 152% and the “inhibition … TVi” value ([4]; 20 μmol/kg i.v., 10 min) was 84%. The “inhibition … Vmaxe” value ([4]; 20 μmol/kg i.v., 10 min) was 109%, the “inhibition … Vmaxi” value ([4]; 20 μmol/kg i.v., 10 min) was 113% and the “inhibition … TVi” value ([4]; 20 μmol/kg i.v., 20 min) was 54%. For the same compound, the “inhibition … Vmaxe” value ([4]; 20 μmol/kg i.v., 20 min) was 63%, the “inhibition … Vmaxi” value ([4]; 20 μmol/kg i.v., 20 min) was 89% and the “inhibition … TVi” value ([4]; 20 μmol/kg i.v., 30 min) was 38%. For the same compound, the “inhibition … Vmaxe” value ([4]; 20 μmol/kg i.v., 30 min) was 43%, the “inhibition … Vmaxi” value ([4]; 20 μmol/kg i.v., 30 min) was 47% and the “inhibition … TVi” value ([4]; 20 μmol/kg i.v., 60 min) was 5%. The “inhibition … Vmaxe” value ([4]; 20 μmol/kg i.v., 60 min) was 6%, the “inhibition … Vmaxi” value ([4]; 20 μmol/kg i.v., 60 min) was 9% and the “inhibition of histamine-induced bronchospasm compared with theophylline” value ([4]; result in words) was “significantly more effective than theophylline”.

For `Cn1c(=O)c2[nH]cnc2n(C)c1=O` [Theophylline, theophylline, reference compound], the Emax ([5]; after 3000 nMol, read-out: Emax left-ventricular pressure) was 16%, the Emax ([5]; at Emax, 3000 nMol, read-out: Percentage increase in heart rate at Emax) was 5% and the EC20 left-ventricular pressure ([5]; dose which leads to a 20% increase in left ventricular pressure) was “is not reached”. The “Doubling of the latency period” value ([6]; 30 min) was 6 N of 10 animals, the “Tripling of the latency period” value ([6]; 30 min) was 4 N of 10 animals and the “Doubling of the latency period” value ([6]; 45 min after administration) was 3 N of 10 animals. The “Tripling of the latency period” value ([6]; 45 min after administration) was 2 N of 10 animals, the EC40 [2] was 417 µM and the “Percentage change in dP/dtmax” value ([7]; 10 μmol/kg i.v., 0-10 min (Maximum)) was 59%. For the same compound, the “Percentage change in dP/dtmax” value ([7]; 10 μmol/kg i.v., 10 min) was 12%, the “Percentage change in dP/dtmax” value ([7]; 10 μmol/kg i.v., 30 min) was 20% and the “Percentage change in dP/dtmax” value ([7]; 30 μmol/kg i.v., 0-10 min (Maximum)) was 92%. The “Percentage change in dP/dtmax” value ([7]; 30 μmol/kg i.v., 10 min) was 53%, the “Percentage change in dP/dtmax” value ([7]; 30 μmol/kg i.v., 30 min) was 67% and the “Percentage change in dP/dtmax” value ([7]; 100 μmol/kg i.v., 0-10 min (Maximum)) was 147%. For the same compound, the “Percentage change in dP/dtmax” value ([7]; 100 μmol/kg i.v., 10 min) was 135%, the “Percentage change in dP/dtmax” value ([7]; 100 μmol/kg i.v., 30 min) was 112% and the “inhibition … TVi” value ([4]; 20 μmol/kg i.v., 2 min) was 45%. The “inhibition … Vmaxe” value ([4]; 20 μmol/kg i.v., 2 min) was 51%, the “inhibition … Vmaxi” value ([4]; 20 μmol/kg i.v., 2 min) was 49% and the “inhibition … TVi” value ([4]; 20 μmol/kg i.v., 10 min) was 5%. For the same compound, the “inhibition … Vmaxe” value ([4]; 20 μmol/kg i.v., 10 min) was 10%, the “inhibition … Vmaxi” value ([4]; 20 μmol/kg i.v., 10 min) was 11% and the “inhibition … TVi” value ([4]; 20 μmol/kg i.v., 20 min) was 5%. The “inhibition … Vmaxe” value ([4]; 20 μmol/kg i.v., 20 min) was 9%, the “inhibition … Vmaxi” value ([4]; 20 μmol/kg i.v., 20 min) was 8% and the “inhibition … TVi” value ([4]; 20 μmol/kg i.v., 30 min) was 10%. The “inhibition … Vmaxe” value ([4]; 20 μmol/kg i.v., 30 min) was 13%, the “inhibition … Vmaxi” value ([4]; 20 μmol/kg i.v., 30 min) was 8% and the “inhibition … TVi” value ([4]; 60 μmol/kg i.j., 2 min) was 7%. For the same compound, the “inhibition … Vmaxe” value ([4]; 60 μmol/kg i.j., 2 min) was 8%, the “inhibition … Vmaxi” value ([4]; 60 μmol/kg i.j., 2 min) was 6% and the “inhibition … TVi” value ([4]; 60 μmol/kg i.j., 10 min) was 35%. For the same compound, the “inhibition … Vmaxe” value ([4]; 60 μmol/kg i.j., 10 min) was 33%, the “inhibition … Vmaxi” value ([4]; 60 μmol/kg i.j., 10 min) was 42% and the “inhibition … TVi” value ([4]; 60 μmol/kg i.j., 20 min) was 41%. The “inhibition … Vmaxe” value ([4]; 60 μmol/kg i.j., 20 min) was 41%, the “inhibition … Vmaxi” value ([4]; 60 μmol/kg i.j., 20 min) was 46% and the “inhibition … TVi” value ([4]; 60 μmol/kg i.j., 30 min) was 37%. The “inhibition … Vmaxe” value ([4]; 60 μmol/kg i.j., 30 min) was 40%, the “inhibition … Vmaxi” value ([4]; 60 μmol/kg i.j., 30 min) was 45% and the “inhibition … TVi” value ([4]; 60 μmol/kg i.j., 45 min) was 33%. The “inhibition … Vmaxe” value ([4]; 60 μmol/kg i.j., 45 min) was 33%, the “inhibition … Vmaxi” value ([4]; 60 μmol/kg i.j., 45 min) was 39% and the “inhibition … TVi” value ([4]; 60 μmol/kg i.j., 60 min) was 37%. For the same compound, the “inhibition … Vmaxe” value ([4]; 60 μmol/kg i.j., 60 min) was 32%, the “inhibition … Vmaxi” value ([4]; 60 μmol/kg i.j., 60 min) was 39% and the “inhibition … TVi” value ([4]; 60 μmol/kg i.v., 2 min) was 78%. For the same compound, the “inhibition … Vmaxe” value ([4]; 60 μmol/kg i.v., 2 min) was 79%, the “inhibition … Vmaxi” value ([4]; 60 μmol/kg i.v., 2 min) was 95% and the “inhibition … TVi” value ([4]; 60 μmol/kg i.v., 10 min) was 27%. The “inhibition … Vmaxe” value ([4]; 60 μmol/kg i.v., 10 min) was 27%, the “inhibition … Vmaxi” value ([4]; 60 μmol/kg i.v., 10 min) was 38% and the “inhibition … TVi” value ([4]; 60 μmol/kg i.v., 20 min) was 16%. The “inhibition … Vmaxe” value ([4]; 60 μmol/kg i.v., 20 min) was 15%, the “inhibition … Vmaxi” value ([4]; 60 μmol/kg i.v., 20 min) was 19% and the “inhibition … TVi” value ([4]; 60 μmol/kg i.v., 30 min) was 16%. The “inhibition … Vmaxe” value ([4]; 60 μmol/kg i.v., 30 min) was 15%, the “inhibition … Vmaxi” value ([4]; 60 μmol/kg i.v., 30 min) was 18% and the “inhibition … TVi” value ([4]; 60 μmol/kg i.v., 60 min) was 3%. The “inhibition … Vmaxe” value ([4]; 60 μmol/kg i.v., 60 min) was 8% and the “inhibition … Vmaxi” value ([4]; 60 μmol/kg i.v., 60 min) was 7%.
